{"source": "patent US20240293435A1", "about": "“Methods and Compositions for Treating Human Disorders Using D-Cycloserine and a Psychedelic Agent” (William & Mary, priority 2023, published 2024)", "origin": "cited, not measured here", "key": {"[1]": {"test_system": "Mycobacterium tuberculosis strains", "settings": "typical Mycobacterium tuberculosis strains"}}, "data": [{"smiles": "N[C@@H]1CON=C1O", "note": "[DCS, 3-Isoxazolidinone, 4-amino-, (4R)-(9CI)]", "values": [{"measurement": "benefit on Alzheimer's Disease", "setting": "Alzheimer's Disease; daily administration of 100 mg (Tsai et al. 1999)", "value": "positive benefit"}, {"measurement": "benefit for treatment of Alzheimer's Disease", "setting": "Alzheimer's Disease; up to 50 mg daily dosing, multi-center 410-patient trial (Fakouhi et al. 1995)", "value": "did not have a significant benefit"}, {"measurement": "serum concentrations generally maintained", "setting": "dose of 500 mg/day, chronic treatment", "value": "25000 to 30000", "unit": "ng/mL"}, {"measurement": "half-life", "setting": "oral capsules", "value": 10, "unit": "h"}, {"measurement": "time to peak serum concentrations after dosing", "setting": "oral capsules", "value": "3 to 8", "unit": "h"}, {"measurement": "minimum inhibitory concentrations (MIC) in vitro", "setting": "[1]", "value": "6 to 25", "unit": "µg/mL"}]}]}
